This is an account of results in ChEMBL document CHEMBL1143634, “Calculating virtual log P in the alkane/water system (log P(N)(alk)) and its derived parameters deltalog P(N)(oct-alk) and log D(pH)(alk)” (J Med Chem, 2005).

The first data set in a line: Tested for fraction of oral dose absorbed orally in humans. Format: ADME. The settings on record: human.
Consider `Cc1cc(=O)n(-c2ccccc2)n1C` [ANTIPYRINE], for which the Activity was found to be 97%.
With `CC(C)NCC(O)COc1cccc2[nH]ccc12` (centres undefined) [PINDOLOL], the Activity stood at 92%.
As to `OC[C@@H](O)[C@@H](O)[C@H](O)[C@H](O)CO` [MANNITOL], the Activity came out at 26%.
On the same count and under the same terms, next, `C=CCc1ccccc1OCC(O)CNC(C)C` (centres undefined) [ALPRENOLOL]: 96%.

The same data set, now with this note: human, read-out: Activity.
As to `O=C(O)c1cc(/N=N/c2ccc(S(=O)(=O)Nc3ccccn3)cc2)ccc1O` [SULFASALAZINE], the Fa came to 13%.

Another data set can be described thus: Lipophilicity determined as logarithm of the partition coefficient in the alkane/water system. The settings on record: octanol/water.
Regarding `C=CCc1ccccc1OCC(O)CNC(C)C` (centres undefined) [ALPRENOLOL], the “Log PNalk” value is 1.3.
Same read-out and setting: next, `O=[N+]([O-])c1cccc(O)c1` [3-NITRO-PHENOL]: -1.23; `CC(C)(C)NC[C@H](O)COc1ccccc1C1CCCC1` [PENBUTOLOL]: 3.06.
Regarding `N#Cc1ccccc1` [BENZONITRILE], the “Log PNalk” value stood at 0.9.
`NC1=NCC2c3ccccc3Cc3ccccc3N12` (centres undefined) [EPINASTINE]: the “Log PNalk” value turned out to be 1.76.
Still for that read-out and setting: the figure for `CCCCC(C)=O` is 0.87; for `CCC(=O)O` [PROPIONIC ACID] it is -2.14; for `CC(C)(C)NC[C@H](O)COc1nsnc1N1CCOCC1` [TIMOLOL] it is -1.
Take `Oc1ccccc1Cl` [2-CHLOROPHENOL]: the “Log PNalk” value stood at 0.76.
Consider `CN1CCC(=C2c3ccccc3CCc3cccnc32)CC1` [AZATADINE], for which the “Log PNalk” value was found to be 1.82.
On the same count and under the same terms, next, `COc1ccccc1C(=O)O`: 2.08; `O=[N+]([O-])c1ccc(/C=N/O)o1` [NIFUROXIME]: -1.1.
Turning to `N=C(N)N/N=C/c1c(Cl)cccc1Cl` [GUANABENZ], the “Log PNalk” value is -1.6.
With `C[S+]([O-])c1ccccc1` (centres undefined) [METHYLPHENYLSULFOXIDE], the “Log PNalk” value is -1.52.
In the case of `C[C@]12CC[C@H]3[C@@H](CCC4=CC(=O)CC[C@@]43C)[C@@H]1CC[C@@H]2O` [TESTOSTERONE], the “Log PNalk” value came out at 0.41.
As for `O=C(O)C(Cl)(Cl)Cl` [TRICHLOROACETIC ACID], the “Log PNalk” value is -2.63.
For `COc1ccc(C(=O)O)cc1` [p-ANISIC ACID], the “Log PNalk” value is recorded as -0.15.
In the case of `Oc1ccc(Cl)cc1` [PARACHLOROPHENOL], the “Log PNalk” value is recorded as -0.12.
Turning to `CCCOC(C)=O` [ACETIC ACID PROPYL ESTER], the “Log PNalk” value was 0.9.
With `O=C(O)c1ccccc1O` [SALICYLIC ACID], the “Log PNalk” value is listed as -0.92.
As to `CS(=O)(=O)c1ccccc1` [METHYLPHENYLSULFONE], the “Log PNalk” value is listed as -0.87.
Turning to `CN(C)c1ccccc1`, the “Log PNalk” value is listed as 2.4.
The same measure, in the same setting: next, `COC(C)=O` [ACETIC ACID METHYL ESTER]: -0.26; `C1CCSC1` [TETRAHYDROTHIOPHENE]: 1.59; `c1ccc(-c2ccncc2)cc1`: 1.58.
On the same count and under the same terms, next, `[O-][S+](c1ccccc1)c1ccccc1`: 0.67; `O=C1NC(=O)C(c2ccccc2)(c2ccccc2)N1` [PHENYTOIN]: -0.3; `O=S(=O)(c1ccccc1)c1ccccc1` [(PHENYLSULFONYL)BENZENE]: 1.45.
Regarding `Ic1ccccc1` [IODOBENZENE], the “Log PNalk” value came out at 3.33.
Take `Oc1ccccc1Br`: the “Log PNalk” value was determined as 1.04.
In the case of `CCOC(C)=O` [ETHYL ACETATE], the “Log PNalk” value was 0.29.
Consider `O=C(CCCN1CCC(O)(c2ccc(Cl)cc2)CC1)c1ccc(F)cc1` [HALOPERIDOL], for which the “Log PNalk” value turned out to be 1.53.
Same read-out and setting: the figure for `COc1cccc(O)c1` [1-hydroxy-3-methoxybenzene] is -0.88.
`C[C@]12CC[C@@H]3c4ccc(O)cc4CC[C@H]3[C@@H]1C[C@@H](O)[C@@H]2O` [ESTRIOL]: the “Log PNalk” value was -0.64.
